Assay results from publication PMC8911181, “A Novel CDK4/6 and PARP Dual Inhibitor ZC-22 Effectively Suppresses Tumor Growth and Improves the Response to Cisplatin Treatment in Breast and Ovarian Cancer” (International Journal of Molecular Sciences, 2022).

Key:
[1] = Body weight and histological analysis (H&E) of major organs, MDA-MB-231 tumor-bearing mice; type: in vivo; settings: ZC-22 monotherapy 50 mg/kg ip
Description: To detect the safety of ZC-22 monotherapy or combination therapy, sections of mouse heart, liver, spleen, lung, and kidney tissues were stained with hematoxylin and eosin (H&E) and then analyzed by microscopy.
Figure S3. ZC-22 inhibits signaling of CDK4/6 and PARP in xenograft tumors of breast cancer. Female NOD-SCID mice were injected subcutaneously with 2×10^6 of MDA-MB-231 cells and treated ip daily with 50 mg/kg of Olaparib (OLA) or LY2835219 (LY-2) alone or together (OLA+LY-2), or ZC-22 starting on day 10 after injection of cells when tumors were 50–80 mm3 in size. Representative pictures of (A) and quantification of percentage of (B) phosphorylated Rb (p-Rb)-positive cells in immunohistochemical staining of the MDA-MB-231 xenograft tumor tissues. Values are means ± SEM, n = 6. ns, not significant, and *** p < 0.001 in the unpaired t-test. (C) Western blot analysis of p-Rb (Left) and PAR (Right) in the MDA-MB-231 xenograft tumor tissues with indicated treatment.
(D) Body weights of MDA-MB-231 tumor burden mice with indicated treatment. Values are means ± SD, n = 6. ns, not significant in unpaired t-test. (E) H&E staining of the heart, liver, spleen, lung, and kidney tissues of tumor-bearing mice treated with DMSO or ZC-22, showing the lack of toxicity of ZC-22 treatment.
Figure S4. ZC-22 increases the sensitivity of breast and ovarian cancer cells to cisplatin. […]

[2] = system: MDA-MB-231 and OVCAR5 cells; assay: PI-based cell-cycle analysis by flow cytometry; design: species or system human; settings: MDA-MB-231 (2 μM) and OVCAR5 (0.5 μM) cells; 24 h
Description: MDA-MB-231 cells were treated with 2 μM LY2835219 or ZC-22, and OVCAR5 cells were treated with 0.5 μM LY2835219 or ZC-22 for 24 h. After washing in PBS, cells were fixed with 70% ethanol on ice for 2 h, followed by centrifugation at 300× g—for 20 min at 4 °C, and then subjected to a propidium iodide (PI, BD Biosciences, Franklin Lakes, NJ, USA) based cell-cycle analysis according to the manufacturer’s protocols. Cell-cycle distribution was analyzed by flow cytometry. Each experiment was performed in triplicates.
Figure 3 ZC-22 inhibits CDK4/6 and PARP to induce cell-cycle arrest, DNA damage, and apoptosis in breast and ovarian cancer cells. […] The levels of CDK4/6 and p-Rb/Rb were determined by Western blot (A). Cell-cycle distribution was analyzed by flow cytometry (B). […] (D,E) Representative pictures (left) and quantification of percentage (right) of γH2A.X-positive cells in MDA-MB-231 cells treated with 2 μM OLA or ZC-22 for 24 h (D), or OVCAR5 cells treated with 0.5 μM OLA or ZC-22 for 24 h (E). Values are means ± SD, n = 3. * p < 0.05, ** p < 0.01, and *** p < 0.001 for comparisons with the DMSO-treated group. p value was calculated using an unpaired t-test. (F,G) Representative pictures (F) and quantification of percentage (G) of apoptotic cells in MDA-MB-231 cells treated with 2 μM LY-2, OLA, or ZC-22 for 48 h or in OVCAR5 cells treated with 0.5 μM LY-2, OLA or ZC-22 for 48 h. […]

## Cc1nc2c(F)cc(-c3nc(Nc4ccc(N5CCN(C(=O)c6cc(Cc7n[nH]c(=O)c8ccccc78)ccc6F)CC5)cn4)ncc3F)cc2n1C(C)C [ZC-22, 4-(4-fluoro-3-(4-(6-((5-fluoro-4-(4-fluoro-1-isopropyl-2-methyl-1H-benzo[d]imidazole-6-yl)pyrimidin-2-yl)amino)pyridin-3-yl)piperazine-1-carbonyl)benzyl)phthalazin-1(2H)-one]
[1]
  toxicity (body weight, histology of major organs): no obvious toxicity
[2]
  cell-cycle distribution: dramatically arrested cell cycle at the G1/S check-point
